Source: patent US10099993B2, “Metabotropic glutamate receptor positive allosteric modulators (PAMS) and uses thereof” (Sanford-Burnham Medical Research Institute, priority 2014, dated 2018)

How the values were obtained:
mGlu3 = mGlu3 (Rattus norvegicus (Rat), UniProt P31422); experiment: mGlu3 GIRK thallium flux assay; conditions: for EC50: read-out: mGlu3 PAM EC50, PAM mode, test compound, then EC20 glutamate […] later in the presence of thallium, mean ± SEM; for Emax: read-out: mGlu3 PAM Max;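 as to all read-outs here: kinetic fluorescence slope read shortly after thallium plus agonist addition, scaled between vehicle and maximal agonist control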
Chain of mGlu3 (P31422 23-879): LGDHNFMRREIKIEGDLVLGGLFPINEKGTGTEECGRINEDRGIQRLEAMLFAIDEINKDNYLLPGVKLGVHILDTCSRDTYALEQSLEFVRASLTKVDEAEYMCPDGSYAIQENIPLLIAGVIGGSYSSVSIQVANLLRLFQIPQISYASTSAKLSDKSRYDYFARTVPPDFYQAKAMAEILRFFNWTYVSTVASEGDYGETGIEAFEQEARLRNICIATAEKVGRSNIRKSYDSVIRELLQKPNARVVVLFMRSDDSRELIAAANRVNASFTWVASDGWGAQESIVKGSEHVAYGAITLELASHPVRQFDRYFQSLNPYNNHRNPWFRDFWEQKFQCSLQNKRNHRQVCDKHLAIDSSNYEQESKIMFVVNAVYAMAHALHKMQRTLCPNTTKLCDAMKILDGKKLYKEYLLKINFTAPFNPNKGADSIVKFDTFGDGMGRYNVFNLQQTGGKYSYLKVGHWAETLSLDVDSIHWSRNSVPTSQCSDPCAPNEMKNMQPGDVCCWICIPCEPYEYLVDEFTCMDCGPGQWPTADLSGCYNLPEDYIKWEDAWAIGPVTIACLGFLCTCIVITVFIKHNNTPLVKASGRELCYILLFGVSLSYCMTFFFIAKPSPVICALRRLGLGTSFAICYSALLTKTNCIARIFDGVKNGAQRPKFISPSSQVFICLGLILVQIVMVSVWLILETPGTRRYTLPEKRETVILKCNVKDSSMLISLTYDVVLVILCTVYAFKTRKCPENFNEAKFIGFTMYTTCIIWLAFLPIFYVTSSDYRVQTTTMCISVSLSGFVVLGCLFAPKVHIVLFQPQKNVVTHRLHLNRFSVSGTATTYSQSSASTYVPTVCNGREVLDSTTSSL

mGlu2 = mGlu2 (Rattus norvegicus (Rat), UniProt P31421); experiment: mGlu2 GIRK thallium flux assay; conditions: for EC50: read-out: mGlu2 PAM EC50, PAM mode, test compound, then EC20 glutamate […] later in the presence of thallium, mean ± SEM, at least three experiments; for Emax: read-out: mGlu2 PAM Max;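 as to all read-outs here: Cell-based assay, rate of fluorescence rise right after thallium plus agonist addition read on a kinetic imaging plate reader, normalized to vehicle and maximal agonist control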
Chain of mGlu2 (P31421 19-872): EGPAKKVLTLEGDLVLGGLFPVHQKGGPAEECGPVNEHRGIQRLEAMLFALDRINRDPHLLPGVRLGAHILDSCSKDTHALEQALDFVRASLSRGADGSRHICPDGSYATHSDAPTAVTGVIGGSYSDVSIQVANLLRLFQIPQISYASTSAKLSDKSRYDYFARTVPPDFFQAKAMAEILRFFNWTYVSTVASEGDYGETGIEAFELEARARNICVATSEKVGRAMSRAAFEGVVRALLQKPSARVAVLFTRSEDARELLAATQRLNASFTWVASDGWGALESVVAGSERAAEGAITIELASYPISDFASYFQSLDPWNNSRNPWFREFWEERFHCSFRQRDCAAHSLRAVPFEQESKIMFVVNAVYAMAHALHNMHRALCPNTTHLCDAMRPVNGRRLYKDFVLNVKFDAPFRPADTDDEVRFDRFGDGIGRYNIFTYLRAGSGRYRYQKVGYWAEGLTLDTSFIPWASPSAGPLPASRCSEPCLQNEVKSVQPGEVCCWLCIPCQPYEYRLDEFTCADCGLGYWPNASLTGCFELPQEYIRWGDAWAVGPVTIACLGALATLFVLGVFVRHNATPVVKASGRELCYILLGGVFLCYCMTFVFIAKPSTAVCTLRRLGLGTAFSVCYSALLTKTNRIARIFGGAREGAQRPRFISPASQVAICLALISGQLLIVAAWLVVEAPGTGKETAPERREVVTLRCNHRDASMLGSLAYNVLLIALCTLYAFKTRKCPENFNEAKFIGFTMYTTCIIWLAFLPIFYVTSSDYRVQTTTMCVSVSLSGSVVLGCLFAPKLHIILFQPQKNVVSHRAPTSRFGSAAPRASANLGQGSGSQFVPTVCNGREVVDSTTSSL

Row | Compound | EC50 (mGlu3) | EC50 (mGlu2) | Emax (mGlu2) | Emax (mGlu3)
1 | Cc1c(OCCCCOc2ccc(CCC(=O)O)c(O)c2)ccc(C(=O)CC(C)C)c1O [Compound 5, reference compound] | > 30 µM |  |  | 
2 | COC(=O)c1ccc(OCCCCOc2ccc(C(=O)CC(C)C)c(C)c2C)cc1 [Compound 14, Methyl 4-(4-(2,3-dimethyl-4-(3-methylbutanoyl)phenoxy)butoxy)benzoate] | > 30 µM | > 30 µM |  | 
3 | COC(=O)c1ccc(OCCCCOc2ccc(C(=O)CC3CCCC3)c(C)c2C)cc1 [Compound 15, Methyl 4-(4-(4-(2-cyclopentylacetyl)-2,3-dimethylphenoxy)butoxy)benzoate] | > 30 µM | > 30 µM |  | 
4 | COC(=O)c1ccc(OCCCCOc2ccc(C(=O)CC(C)C)c(O)c2C)cc1 [Compound 16, Methyl 4-(4-(3-hydroxy-2-methyl-4-(3-methylbutanoyl)phenoxy)butoxy)benzoate] | > 30 µM | > 30 µM |  | 
5 | COC(=O)c1ccc(OCCCCOc2ccc(C(=O)CC3CCCC3)c(O)c2C)cc1 [Compound 17, Methyl 4-(4-(4-(2-cyclopentylacetyl)-3-hydroxy-2-methylphenoxy)butoxy)benzoate] | > 30 µM | > 30 µM |  | 
6 | Cc1c(OCCCCOc2ccc(C(=O)O)cc2)ccc(C(=O)CC(C)C)c1C [Compound 18, 4-(4-(2,3-Dimethyl-4-(3-methylbutanoyl)phenoxy)butoxy)benzoic acid] | > 30 µM | > 30 µM |  | 
7 | Cc1c(OCCCCOc2ccc(C(=O)O)cc2)ccc(C(=O)CC2CCCC2)c1C [Compound 19, 4-(4-(4-(2-Cyclopentylacetyl)-2,3-dimethylphenoxy)butoxy)benzoic acid] | > 30 µM | > 30 µM |  | 
8 | Cc1c(OCCCCOc2cccc(C(=O)O)c2)ccc(C(=O)CC(C)C)c1C [Compound 22, 3-(4-(2,3-Dimethyl-4-(3-methylbutanoyl)phenoxy)butoxy)benzoic acid] | > 30 µM | > 30 µM |  | 
9 | Cc1c(OCCCCOc2cccc(C(=O)O)c2)ccc(C(=O)CC2CCCC2)c1C [Compound 23, 3-(4-(4-(2-Cyclopentylacetyl)-2,3-dimethylphenoxy)butoxy)benzoic acid] | > 30 µM | > 30 µM |  | 
10 | Cc1c(OCCCCOc2ccccc2C(=O)O)ccc(C(=O)CC2CCCC2)c1C [Compound 27, 2-(4-(4-(2-Cyclopentylacetyl)-2,3-dimethylphenoxy)butoxy)benzoic acid] | > 30 µM |  |  | 
11 | Cc1c(OCCCCOc2ccccc2C(=O)O)ccc(C(=O)CC(C)C)c1O [Compound 28, 2-(4-(3-Hydroxy-2-methyl-4-(3-methylbutanoyl)phenoxy)butoxy)benzoic acid] | > 30 µM |  |  | 
12 | Cc1c(OCCCCOc2ccccc2C(=O)O)ccc(C(=O)CC2CCCC2)c1O [Compound 29, 2-(4-(4-(2-Cyclopentylacetyl)-3-hydroxy-2-methylphenoxy)butoxy)benzoic acid] | > 30 µM |  |  | 
13 | Cc1c(OCCCCOc2ccc(C(=O)O)c(Cl)c2)ccc(C(=O)CC(C)C)c1C [Compound 30, 2-Chloro-4-(4-(2,3-dimethyl-4-(3-methylbutanoyl)phenoxy)butoxy)benzoic acid] | > 30 µM |  |  | 
14 | Cc1c(OCCCCOc2ccc(F)c(C(=O)O)c2)ccc(C(=O)CC(C)C)c1C [Compound 34, 5-(4-(2,3-Dimethyl-4-(3-methylbutanoyl)phenoxy)butoxy)-2-fluorobenzoic acid] | > 30 µM | > 30 µM |  | 
15 | Cc1c(OCCCCOc2ccc(F)c(C(=O)O)c2)ccc(C(=O)CC2CCCC2)c1C [Compound 35, 5-(4-(4-(2-Cyclopentylacetyl)-2,3-dimethylphenoxy)butoxy)-2-fluorobenzoic acid] | > 30 µM | > 30 µM |  | 
16 | COc1cc(C(=O)O)ccc1OCCCCOc1ccc(C(C)=O)c(O)c1C [Compound 52, 4-(4-(4-Acetyl-3-hydroxy-2-methylphenoxy)butoxy)-3-methoxybenzoic acid] | > 30 µM |  |  | 
17 | COc1ccc(C(=O)O)cc1OCCCCOc1ccc(C(C)=O)c(O)c1C [Compound 53, 3-(4-(4-Acetyl-3-hydroxy-2-methylphenoxy)butoxy)-4-methoxybenzoic acid] | > 30 µM |  |  | 
18 | CC(=O)c1ccc(OCCCCOc2cccc(C(=O)O)c2C)c(C)c1O [Compound 54, 3-(4-(4-Acetyl-3-hydroxy-2-methylphenoxy)butoxy)-2-methylbenzoic acid] | > 30 µM |  |  | 
19 | CC(=O)c1ccc(OCCCCOc2ccc(F)c(C(=O)O)c2)c(C)c1O [Compound 55, 5-(4-(4-Acetyl-3-hydroxy-2-methylphenoxy)butoxy)-2-fluorobenzoic acid] | > 30 µM |  |  | 
20 | CC(=O)c1ccc(OCCCCOc2ccc(C(=O)O)cc2C)c(C)c1O [Compound 56, 4-(4-(4-Acetyl-3-hydroxy-2-methylphenoxy)butoxy)-3-methylbenzoic acid] | > 30 µM |  |  | 
21 | CCC(=O)c1ccc(OCCCCOc2ccc(C(=O)O)cc2OC)c(C)c1O [Compound 57, 4-(4-(3-Hydroxy-2-methyl-4-propionylphenoxy)butoxy)-3-methoxybenzoic acid] | > 30 µM |  |  | 

Row | Compound | EC50 (mGlu3) | EC50 (mGlu2) | Emax (mGlu2) | Emax (mGlu3)
22 | CCC(=O)c1ccc(OCCCCOc2cccc(C(=O)O)c2C)c(C)c1O [Compound 59, 3-(4-(3-Hydroxy-2-methyl-4-propionylphenoxy)butoxy)-2-methylbenzoic acid] | > 30 µM |  |  | 
23 | CCC(=O)c1ccc(OCCCCOc2ccc(C(=O)O)cc2C)c(C)c1O [Compound 61, 4-(4-(3-Hydroxy-2-methyl-4-propionylphenoxy)butoxy)-3-methylbenzoic acid] | > 30 µM |  |  | 
24 | COc1cc(C(=O)O)ccc1OCCCCOc1ccc(C(=O)C(C)C)c(O)c1C [Compound 62, 4-(4-(3-Hydroxy-4-isobutyryl-2-methylphenoxy)butoxy)-3-methoxybenzoic acid] | > 30 µM |  |  | 
25 | Cc1c(OCc2cccc(-c3occc3C(=O)O)c2)ccc(C(=O)CC(C)(C)C)c1O [Compound 178, 2-(3-((4-(3,3-Dimethylbutanoyl)-3-hydroxy-2-methylphenoxy)methyl)phenyl)furan-3-carboxylic acid] | 2.87 ± 1.12 µM | 0.409 ± 0.105 µM | 81.4 ± 10.1% | 67.7 ± 11.7%
26 | Cc1c(OCc2cccc(-c3cncc(C(=O)O)c3)c2)ccc(C(=O)CC(C)(C)C)c1O [Compound 179, 5-(3-((4-(3,3-Dimethylbutanoyl)-3-hydroxy-2-methylphenoxy)methyl)phenyl)nicotinic acid] | 1.01 ± 0.02 µM | 0.848 ± 0.009 µM | 100 ± 2.9% | 102 ± 3.5%
27 | Cc1c(OCc2cccc(-c3cnccc3C(=O)O)c2)ccc(C(=O)CC(C)(C)C)c1O [Compound 180, 3-(3-((4-(3,3-Dimethylbutanoyl)-3-hydroxy-2-methylphenoxy)methyl)phenyl)isonicotinic acid] | > 30 µM | 1.46 ± 0.02 µM | 88.4 ± 1.5% | 30.6 ± 9.2%
28 | Cc1c(OCc2cccc(-c3cnc(C(=O)O)cn3)c2)ccc(C(=O)CC(C)(C)C)c1O [Compound 181, 5-(3-((4-(3,3-Dimethylbutanoyl)-3-hydroxy-2-methylphenoxy)methyl)phenyl)pyrazine-2-carboxylic acid] | 4.28 ± 0.064 µM | 2.134 ± 0.008 µM | 105 ± 3.4% | 106 ± 2.1%
29 | Cc1c(OCCCCOc2ccccn2)ccc(C(=O)CC(C)C)c1C [Compound 183] | > 30 µM | > 10 µM |  | 
30 | Cc1c(OCCCCSc2ccccn2)ccc(C(=O)CC(C)C)c1O [Compound 184] | > 30 µM | > 10 µM |  | 
31 | Cc1c(OCCCCOc2ccccn2)ccc(C(=O)CC(C)C)c1O [Compound 185] | > 30 µM | 2.79 ± 0.102 µM | 66.3 ± 0.6% | 22.4 ± 4.3%
32 | Cc1c(OCCCCOc2ccccn2)ccc(C(=O)CC2CCCC2)c1O [Compound 186] | > 30 µM | > 10 µM |  | 
33 | Cc1c(OCCCCOCc2cccc(-c3cccc(C(=O)O)c3)c2)ccc(C(=O)CC(C)(C)C)c1O [Compound 187, 3′-((4-(4-(3,3-Dimethylbutanoyl)-3-hydroxy-2-methylphenoxy)butoxy)methyl)-[1,1′-biphenyl]-3-carboxylic acid] | 3.07 ± 0.632 µM | 1.57 ± 0.297 µM | 93.4 ± 3.4% | 74.1 ± 7.8%
34 | Cc1c(OCCCCSc2ccncc2)ccc(C(=O)CC2CCCC2)c1C [Compound 188] | > 30 µM | > 30 µM |  | 
35 | Cc1c(OCCCCSc2ccncc2)ccc(C(=O)CC(C)C)c1C [Compound 189] | > 30 µM | > 30 µM |  | 
36 | CCCc1c(OCCCCOc2ccc(C(=O)O)cc2OC)ccc(C(C)=O)c1O [Compound 190, 4-(4-(4-Acetyl-3-hydroxy-2-propylphenoxy)butoxy)-3-methoxybenzoic acid] |  |  | 64.9 ± 5.1% | 12.1 ± 12.8%
37 | CCCc1c(OCCCCOc2ccc(C(=O)O)cc2C)ccc(C(C)=O)c1O [Compound 191, 4-(4-(4-Acetyl-3-hydroxy-2-propylphenoxy)butoxy)-3-methylbenzoic acid] |  |  | 43.8 ± 5.4% | 0.1 ± 7.7%
38 | CC(C)(C)CC(=O)c1ccc(OCc2cccc(-c3cccc(C(=O)O)c3)c2)c(I)c1O [Compound 192, 3′-((4-(3,3-Dimethylbutanoyl)-3-hydroxy-2-iodophenoxy)methyl)-[1,1′-biphenyl]-3-carboxylic acid] |  |  | 82 ± 5.1% | 62.6 ± 9.7%
39 | Cc1c(OCCCCOc2ccc(C(=O)C(C)C)c(O)c2C)cccc1C(=O)O [compound 64, 3-(4-(3-Hydroxy-4-isobutyryl-2-methylphenoxy)butoxy)-2-methylbenzoic acid] | > 30 µM |  |  | 
40 | Cc1cc(C(=O)O)ccc1OCCCCOc1ccc(C(=O)C(C)C)c(O)c1C [compound 66, 4-(4-(3-Hydroxy-4-isobutyryl-2-methylphenoxy)butoxy)-3-methylbenzoic acid] | > 30 µM |  |  | 
41 | COc1ccc(C(=O)O)cc1-c1cncc(COc2ccc(C(=O)CC(C)(C)C)c(O)c2C)c1 [compound 160, 3-(5-((4-(3,3-Dimethylbutanoyl)-3-hydroxy-2-methylphenoxy)methyl)pyridin-3-yl)-4-methoxybenzoic acid] |  |  |  | 110 ± 2.4%
